# Laboratory results: patent publication US9796728B2, “Cyclic carbonate monomer containing double-sulfur five-membered ring functional group, and preparation method thereof” (BrightGene Bio-Medical Technology Co., Ltd., priority 2014, dated 2017)
# Test system: B16 melanoma
# Test: Treating melanoma-bearing mice with drug-loaded crosslinked nanoparticles
# Type: in vivo, C57BL/6 black mice
# Description: C57BL/6 black mice with body weight of about 18˜20 g, aged 4˜6 weeks were used in the experiment. The mice were weighed and equally grouped based on body weight, then 1×10^6 B16 melanoma cells were subcutaneously injected. After one week, when the size of the tumors was 30˜50 mm^3, the drug-loaded nanoparticles and free DOX were injected into the mice through tail veins at Day 0, 2, 4, 6, and 8, where the amount of DOX in drug-carrying nanoparticles was 10, 20, 30 mg/kg, […] From Day 0 to 15, the body weight of the mice in each group was weighed every day. The size of the tumor was precisely measured with Vernier scale, where the method for calculating the volume of tumors was: V=(L×W×H)/2, (where L was the length of the tumor, W was the width of the tumor, H was the thickness of the tumor). The survival of the mice was observed continuously till the 46th day.
# FIG. 11 is a curve graph showing that the doxorubicin-loaded polymer PEG5k-b-PCDC2.8k crosslinked nanoparticles inhibit tumor growth on melanoma-bearing mice; FIG. 12 is a curve graph showing the change of body weight of the mice. FIG. 13 is a curve graph showing the survival of the mice.
compound,measurement,setting,value
"COc1cccc2c1C(=O)c1c(O)c3c(c(O)c1C2=O)C[C@@](O)(C(=O)CO)C[C@@H]3O[C@H]1C[C@H](N)[C@H](O)[C@H](C)O1 [free DOX, doxorubicin]",body weight decrease,"DOX group, in 7 days",23%
same,day of treatment on which all mice died,"DOX group, printed as 30 mg/kg",10 days
same,toxic side effects on the mice,free DOX group,severe toxic side effect
